Data taken from the OligoGym collection.
Bases are written 5' to 3'; sugars and linkages follow in the same order, as letters with counts (s phosphorothioate, o phosphodiester; PS: all linkages phosphorothioate). The collection does not say whether C is 5-methylated. l = locked nucleic acid (LNA); d = 2'-deoxy (DNA)

These sequences were tested against Tau (assay: rat primary cortical neurons, FLIPR, 25 uM ASO).
In the case of AGCAATAGCAAACAG (sugars l3 d9 l3, PS), the calcium oscillation score is reported as 52.8 % of control. AGCAATAGCAAACAGG (sugars l3 d10 l3, PS) was tested, and the calcium oscillation score was 48.8 % of control. In the case of AGCAGAGGAACGTGTG (sugars l3 d10 l3, PS), the calcium oscillation score is reported as 11.1 % of control. In the case of “AGCAGGTTAAGTGATTAACC (sugars l3 d14 l3, PS)”, the calcium oscillation score is reported as 16 % of control. In the case of AGCATCAGAGGTTTCA (sugars l3 d10 l3, PS), the calcium oscillation score is reported as 0 % of control. With “AGCCACACTTGGAGGTCACC (sugars l3 d14 l3, PS)” the calcium oscillation score was 0 % of control. In the case of AGCCACTGTTGCCACA (sugars l2 d12 l2, PS), the calcium oscillation score is reported as 39.3 % of control. With “AGCCCATTTACAATTCA (sugars l2 d11 l4, PS)” the calcium oscillation score was 76.7 % of control. AGCCCTAAAGTCCCAG (sugars l3 d10 l3, PS) was tested, and the calcium oscillation score was 38.1 % of control. In the case of “AGCCTCTAGCCACATGGACC (sugars l3 d14 l3, PS)”, the calcium oscillation score is reported as 16.1 % of control. In the case of AGCGTGATCTTCCATC (sugars l3 d10 l3, PS), the calcium oscillation score is reported as 101 % of control. For AGCTACTCACAACCCA (sugars l2 d11 l3, PS), the calcium oscillation score was 65.6 % of control. With “AGCTGGGTGGTGTCTTTGGA (sugars l3 d14 l3, PS)” the calcium oscillation score was 0 % of control. In the case of “AGCTTCCACATTTTACA (sugars l3 d12 l2, PS)”, the calcium oscillation score is reported as 63.8 % of control. In the case of “AGCTTCGTCTTCCAGGCTGG (sugars l3 d14 l3, PS)”, the calcium oscillation score is reported as 13.3 % of control. For “AGCTTGTGGGTTTCAATCTT (sugars l3 d14 l3, PS)”, the calcium oscillation score was 0 % of control. With AGCTTTGAGTTGAGGG (sugars l3 d10 l3, PS) the calcium oscillation score was 0 % of control. AGGAAATCCACAGGGA (sugars l3 d10 l3, PS) was tested, and the calcium oscillation score was 0 % of control. With “AGGCAAAGGTTTATCTTCCA (sugars l3 d14 l3, PS)” the calcium oscillation score was 33 % of control. In the case of AGGCACAAGTCCTTA (sugars l3 d9 l3, PS), the calcium oscillation score is reported as 107 % of control. AGGCATGATTGTGGGC (sugars l3 d10 l3, PS) was tested, and the calcium oscillation score was 0 % of control. In the case of AGGCGCGAGCAGCG (sugars l3 d8 l3, PS), the calcium oscillation score is reported as 100 % of control. For AGGGACCCAATCTTCG (sugars l3 d10 l3, PS), the calcium oscillation score was 73.3 % of control. With “AGGGACGTGGGTGATATTGT (sugars l3 d14 l3, PS)” the calcium oscillation score was 1.3 % of control. For “AGGTATCCAGCCATATTTCA (sugars l3 d14 l3, PS)”, the calcium oscillation score was 20.2 % of control. In the case of AGGTCAACTGGTTT (sugars l3 d8 l3, PS), the calcium oscillation score is reported as 117 % of control. With AGGTCAACTGGTTTGT (sugars l3 d10 l3, PS) the calcium oscillation score was 0 % of control. For “AGGTCAACTGGTTTGTAGAC (sugars l3 d14 l3, PS)”, the calcium oscillation score was 0 % of control. For AGGTCACCTTGCTCAG (sugars l3 d10 l3, PS), the calcium oscillation score was 52.8 % of control. With AGGTCTGGCATGGGC (sugars l3 d9 l3, PS) the calcium oscillation score was 47.6 % of control. “AGGTTAAGTGATTAACCAAT (sugars l3 d14 l3, PS)” was tested, and the calcium oscillation score was 115 % of control. With AGTCAAGCATCACGTT (sugars l3 d10 l3, PS) the calcium oscillation score was 42.2 % of control. For AGTCACTCTGGTGA (sugars l3 d8 l3, PS), the calcium oscillation score was 97.1 % of control. AGTCCCGAGCCAAAG (sugars l3 d9 l3, PS) was tested, and the calcium oscillation score was 36.6 % of control. For AGTCCCGTCTTTGC (sugars l3 d8 l3, PS), the calcium oscillation score was 2.61 % of control. AGTCCTAATCCTGTGC (sugars l3 d10 l3, PS) was tested, and the calcium oscillation score was 25.3 % of control. In the case of AGTCTACCATGTCGAT (sugars l3 d10 l3, PS), the calcium oscillation score is reported as 69.1 % of control. “AGTCTACCATGTCGATGCTG (sugars l3 d14 l3, PS)” was tested, and the calcium oscillation score was 71.2 % of control. For AGTCTTTATTAACACTC (sugars l4 d9 l4, PS), the calcium oscillation score was 60.8 % of control. With AGTGACAGAAGAGACG (sugars l3 d10 l3, PS) the calcium oscillation score was 9.04 % of control. With “AGTGATTAACCAATTAACCG (sugars l3 d14 l3, PS)” the calcium oscillation score was 5.18 % of control. With AGTGGAGCCGATCTTG (sugars l3 d10 l3, PS) the calcium oscillation score was 0 % of control. With “AGTTCCCACAATTCCTA (sugars l2 d13 l2, PS)” the calcium oscillation score was 38.7 % of control. For “AGTTCCCACAATTCCTAC (sugars l2 d13 l3, PS)”, the calcium oscillation score was 50.4 % of control. AGTTTGTGCAAGGTC (sugars l3 d9 l3, PS) was tested, and the calcium oscillation score was 0 % of control. For ATAAATTTGAACCCCT (sugars l3 d9 l4, PS), the calcium oscillation score was 49.7 % of control. For “ATACAATAAATACCATATTC (sugars l3 d14 l3, PS)”, the calcium oscillation score was 81 % of control. For “ATACAGTTGGCCCTACCATA (sugars l3 d14 l3, PS)”, the calcium oscillation score was 30.9 % of control. In the case of “ATACTCAAATTCTTCCT (sugars l3 d10 l4, PS)”, the calcium oscillation score is reported as 84.8 % of control. In the case of “ATACTCAAATTCTTCCTT (sugars l4 d11 l3, PS)”, the calcium oscillation score is reported as 70.9 % of control. “ATACTCAAATTCTTCCTTT (sugars l3 d12 l4, PS)” was tested, and the calcium oscillation score was 74 % of control. ATAGATTTTACTACTC (sugars l4 d8 l4, PS) was tested, and the calcium oscillation score was 73.3 % of control. In the case of ATAGCAAACAGGATAC (sugars l3 d10 l3, PS), the calcium oscillation score is reported as 27.6 % of control. ATAGTCACTCTGGTG (sugars l3 d9 l3, PS) was tested, and the calcium oscillation score was 27.8 % of control. For ATAGTCACTCTGGTGA (sugars l3 d10 l3, PS), the calcium oscillation score was 85.7 % of control. ATATCATATCCTAAGC (sugars l4 d9 l3, PS) was tested, and the calcium oscillation score was 50.9 % of control. “ATATTCCACACATAAACAA (sugars l4 d11 l4, PS)” was tested, and the calcium oscillation score was 62.8 % of control. ATATTGAACTCACCCA (sugars l4 d9 l3, PS) was tested, and the calcium oscillation score was 67.3 % of control. In the case of “ATATTGAACTCACCCAC (sugars l2 d11 l4, PS)”, the calcium oscillation score is reported as 54.3 % of control. For “ATATTGTCCAGGGACCCAAT (sugars l3 d14 l3, PS)”, the calcium oscillation score was 19.9 % of control. For “ATATTTAGTTTTCCCAC (sugars l2 d11 l4, PS)”, the calcium oscillation score was 42.4 % of control. “ATCAATTCTCATTTCAACCT (sugars l3 d15 l2, PS)” was tested, and the calcium oscillation score was 70.7 % of control. In the case of “ATCAATTTGGAAAGATGAAA (sugars l3 d14 l3, PS)”, the calcium oscillation score is reported as 10.4 % of control. In the case of “ATCACAAACCCTGCTTGGCC (sugars l3 d14 l3, PS)”, the calcium oscillation score is reported as 55.2 % of control. With “ATCACTGATTTTGAAGTCCC (sugars l5 d10 l5, PS)” the calcium oscillation score was ≥ 200 % of control. For ATCACTTCGAACTCCT (sugars l3 d10 l3, PS), the calcium oscillation score was 159 % of control. In the case of ATCAGAGGGTCTGAGC (sugars l3 d10 l3, PS), the calcium oscillation score is reported as 59.3 % of control. With ATCAGAGGTTTCAGAG (sugars l3 d10 l3, PS) the calcium oscillation score was 0 % of control. “ATCAGCCTTCATCACACT (sugars l4 d12 l2, PS)” was tested, and the calcium oscillation score was 87.7 % of control. “ATCAGTCTTATCTCCCA (sugars l3 d12 l2, PS)” was tested, and the calcium oscillation score was 49.2 % of control. In the case of “ATCATAATCCTACCACCA (sugars l3 d13 l2, PS)”, the calcium oscillation score is reported as 87.5 % of control. For ATCATATCCTAAGCAT (sugars l3 d9 l4, PS), the calcium oscillation score was 60.1 % of control. In the case of “ATCATTTTTTATTCATAACT (sugars l4 d12 l4, PS)”, the calcium oscillation score is reported as 53.4 % of control. With “ATCCAAGTCAATGCCTGGCT (sugars l3 d14 l3, PS)” the calcium oscillation score was 34.2 % of control. In the case of “ATCCAGCCATATTTCAACTC (sugars l3 d14 l3, PS)”, the calcium oscillation score is reported as 28.2 % of control. For ATCCATTAATTTAGCC (sugars l3 d10 l3, PS), the calcium oscillation score was 76.7 % of control. “ATCCTAAGTCAACCACA (sugars l2 d11 l4, PS)” was tested, and the calcium oscillation score was 69 % of control. In the case of “ATCCTGGTGGCGTTGGCCTG (sugars l3 d14 l3, PS)”, the calcium oscillation score is reported as 0 % of control. With ATCCTTCTAAGTACAA (sugars l4 d8 l4, PS) the calcium oscillation score was 85.6 % of control. ATCGCTTCCAGTCC (sugars l3 d8 l3, PS) was tested, and the calcium oscillation score was 29.9 % of control. In the case of ATCTCAAGTCTTATTCT (sugars l4 d9 l4, PS), the calcium oscillation score is reported as 48.8 % of control. “ATCTTAATTCATTTAATTCT (sugars l4 d12 l4, PS)” was tested, and the calcium oscillation score was 93.1 % of control. ATCTTAGGCTGGCCC (sugars l3 d9 l3, PS) was tested, and the calcium oscillation score was 50.6 % of control. For “ATCTTATTGCTTTCCAA (sugars l4 d10 l3, PS)”, the calcium oscillation score was 75.3 % of control. ATCTTCGACTGGACTC (sugars l3 d10 l3, PS) was tested, and the calcium oscillation score was 59.7 % of control. In the case of “ATGACATTTTAAACCCC (sugars l3 d11 l3, PS)”, the calcium oscillation score is reported as 54.9 % of control. For “ATGACCTCAACTCTACCT (sugars l3 d13 l2, PS)”, the calcium oscillation score was 61 % of control. With “ATGAGCACTAACTCTAAGTA (sugars l3 d14 l3, PS)” the calcium oscillation score was 4.76 % of control. In the case of “ATGAGCCACACTTGGAGGTC (sugars l3 d14 l3, PS)”, the calcium oscillation score is reported as 19.9 % of control. With ATGATGGATGTTGCCT (sugars l3 d10 l3, PS) the calcium oscillation score was 0 % of control. “ATGATGGATGTTGCCTAATG (sugars l3 d14 l3, PS)” was tested, and the calcium oscillation score was 0 % of control. With “ATGATTAATTACACCCC (sugars l3 d11 l3, PS)” the calcium oscillation score was 8.2 % of control. With ATGATTGTGGGCTTA (sugars l3 d9 l3, PS) the calcium oscillation score was 7.83 % of control. ATGATTGTGGGCTTAG (sugars l3 d10 l3, PS) was tested, and the calcium oscillation score was 24.4 % of control. ATGCAGGAGTTGTAAG (sugars l3 d10 l3, PS) was tested, and the calcium oscillation score was 40.8 % of control. In the case of ATGCTTACACACCACA (sugars l2 d10 l4, PS), the calcium oscillation score is reported as 88.5 % of control. In the case of “ATGGATGTTGCCTAATGAGC (sugars l3 d14 l3, PS)”, the calcium oscillation score is reported as 0 % of control. For ATGTCGATGCTGCC (sugars l3 d8 l3, PS), the calcium oscillation score was 137 % of control. ATGTCGATGCTGCCGG (sugars l3 d10 l3, PS) was tested, and the calcium oscillation score was 0 % of control. With ATGTTGCCTAATGAGC (sugars l3 d10 l3, PS) the calcium oscillation score was 69 % of control. For “ATGTTGCCTAATGAGCCACA (sugars l3 d14 l3, PS)”, the calcium oscillation score was 31.6 % of control. “ATGTTTTTTAACTCCCA (sugars l3 d11 l3, PS)” was tested, and the calcium oscillation score was 83.5 % of control. With “ATTAACATATTTTTACCTA (sugars l4 d11 l4, PS)” the calcium oscillation score was 65.3 % of control. ATTAACCAATTAACCG (sugars l3 d10 l3, PS) was tested, and the calcium oscillation score was 103 % of control. For “ATTAACCAATTAACCGAACT (sugars l3 d14 l3, PS)”, the calcium oscillation score was 45.2 % of control. With “ATTAACCCTTGATCATATTT (sugars l3 d14 l3, PS)” the calcium oscillation score was 40.5 % of control. For ATTAACCGAACTGCGA (sugars l3 d10 l3, PS), the calcium oscillation score was 10.9 % of control. With ATTAATTACACCCCTG (sugars l3 d9 l4, PS) the calcium oscillation score was 5.47 % of control. In the case of “ATTAATTATCTGCACCT (sugars l4 d10 l3, PS)”, the calcium oscillation score is reported as 24.7 % of control. For “ATTAATTATTAAATCTTCT (sugars l4 d11 l4, PS)”, the calcium oscillation score was 63.9 % of control.
